Literature values, collected in patent US10507188B2, “Particles containing an opioid receptor antagonist and methods of use” (priority 2008, dated 2019).

Conditions: white crystalline powder, typically the bromide salt (Mallinckrodt)

For C[N+]1(CC2CC2)CCC23c4c5ccc(O)c4OC2C(=O)CCC3(O)C1C5 (stereo not shown) [MNTX, N-methylnaltrexone], the solubility in water is listed as “freely soluble in water”.
